Results published in article PMC3088120 (ACS medicinal chemistry letters, 2011).

Legend:
[1] = tested on: E. coli and S. aureus DNA gyrase; details: in vitro; cited from earlier work
E. coli DNA gyrase = E. coli DNA gyrase (Escherichia coli, UniProt P0AES4+P0AES6); assay: in vitro dsDNA break; format: biochemical; details: 1 tested at ≤3.3 mM
Sequence of E. coli DNA gyrase (P0AES4 whole entry, one chain of several): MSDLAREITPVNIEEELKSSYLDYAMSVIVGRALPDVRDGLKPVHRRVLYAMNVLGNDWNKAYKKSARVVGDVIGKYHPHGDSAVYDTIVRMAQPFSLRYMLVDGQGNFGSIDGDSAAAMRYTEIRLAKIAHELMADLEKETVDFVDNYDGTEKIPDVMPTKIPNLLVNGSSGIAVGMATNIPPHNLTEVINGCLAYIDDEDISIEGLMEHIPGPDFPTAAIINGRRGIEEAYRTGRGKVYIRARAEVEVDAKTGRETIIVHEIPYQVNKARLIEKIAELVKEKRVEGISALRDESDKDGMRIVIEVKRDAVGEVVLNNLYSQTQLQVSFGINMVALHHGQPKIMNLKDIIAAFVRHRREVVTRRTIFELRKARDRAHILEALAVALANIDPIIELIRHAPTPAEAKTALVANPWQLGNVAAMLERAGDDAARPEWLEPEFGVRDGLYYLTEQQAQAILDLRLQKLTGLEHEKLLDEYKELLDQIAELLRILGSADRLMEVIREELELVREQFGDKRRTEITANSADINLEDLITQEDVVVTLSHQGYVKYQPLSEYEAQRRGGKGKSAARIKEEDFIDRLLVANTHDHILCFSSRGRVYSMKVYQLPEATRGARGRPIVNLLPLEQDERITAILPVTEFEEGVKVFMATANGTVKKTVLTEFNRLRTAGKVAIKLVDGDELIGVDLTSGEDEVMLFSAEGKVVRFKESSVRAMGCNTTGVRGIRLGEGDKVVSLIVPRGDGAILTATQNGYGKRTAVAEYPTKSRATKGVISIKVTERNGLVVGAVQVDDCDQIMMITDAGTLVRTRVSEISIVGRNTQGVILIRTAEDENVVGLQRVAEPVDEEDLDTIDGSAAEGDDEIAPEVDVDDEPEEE

Row | SMILES | release of dsDNA ends [1] | generation of dsDNA breaks / linearized DNA (E. coli DNA gyrase)
1 | COc1ccc2ncc(F)c([C@@H](O)CC[C@@H]3CCN(CCSc4cccs4)C[C@@H]3C(=O)O)c2c1 [NXL101] | does not release dsDNA ends | 
2 | O=C(O)c1cn(C2CC2)c2cc(N3CCNCC3)c(F)cc2c1=O [ciprofloxacin] |  | production of dsDNA breaks
